Test system: pentagastrin-stimulated acid secretion of the perfused rat stomach
Conditions: perfused rat stomach in vivo, dose 1 μmol/kg i.v.
Procedure: The pH (pH meter 632, glass electrode EA 147; φ=5 mm, Metrohm) and, by titration with a freshly prepared 0.01 N NaOH solution to pH 7 (Dosimat 665 Metrohm), the secreted HCl were determined in the effluent in each case collected at an interval of 15 minutes.
The gastric secretion was stimulated by continuous infusion of 1 μg/kg (=1.65 ml/h) of i.v. pentagastrin (left femoral vein) about 30 min after the end of the operation (i.e. after determination of 2 preliminary fractions).
The body temperature of the animals was kept at a constant 37.8-38° C. by infrared irradiation and heat pads (automatic, stepless control by means of a rectal temperature sensor).

Structure (SMILES)	Inhibition of acid secretion [%]
COCCO[C@@H]1c2ccn3c(C)c(C)nc3c2O[C@H](c2ccccc2)[C@@H]1O [Example 1, (7R,8R,9R)-2,3-Dimethyl-8-hydroxy-7-(2-methoxyethoxy)-9-phenyl-7H-8,9-dihydro-pyrano-[2,3-c]imidazo[1,2-a]pyridine]	100
CCO[C@@H]1c2ccn3c(C)c(C)nc3c2O[C@H](c2ccccc2)[C@@H]1O [Example 3, (7R,8R,9R)-2,3-Dimethyl-8-hydroxy-7-ethoxy-9-phenyl-7H-8,9-dihydro-pyrano[2,3-c]imidazo-[1,2-a]pyridine]	100

— US6936623B2, “Pyrano[2,3-C]imidazo[-1,2-A]pyridine derivatives for the treatment of gastrointestinal disorders” (Altana Pharma AG, priority 2000, dated 2005)
